According to patent US9827228B2, “Opioid receptor modulators and use thereof” (priority 2015, dated 2017):
Read-outs that look alike come from different tables or passages of the source.

Target: T1, hMOR (Homo sapiens, UniProt P35372)
T1 construct: host or cells: CHO-K1
Test: cell-based
Assay type: cell-based
Details: for AUC: AUC of [Ca2+]i fluorescence
Experimental: Chinese hamster ovary (CHO)-K1 cells expressing hMOR and Gα15 (CHO-K1/MOR/Gα15) were cultured in F12 medium (GIBCO) supplemented with 10 μg/mL Hygromycin B (Invivogen), 20 μg/mL Zeocin (Invivogen) and P/S/F (100 units/mL penicillin, 100 μg/mL streptomycin, 10% fetal bovine serum). The cultures were incubated at 37° C. in a humidified 5% CO2 incubator.
One day prior to running the assay, CORNING® black 96-well assay plates having a clear flat bottom were coated with a 0.1 mg/mL Poly-L-Lysine solution. CHO-K1/MOR/Gα15 cells were suspended in F12 medium and plated at a density of about 8×10^4 cells/well in 200 μL medium. Cells were incubated under a humidified atmosphere of 10% CO2 at 37° C. overnight to reach an 80-90% confluent cell monolayer before the assay. On the day of the assay, 150 μL medium was removed from each well of the plates. To each well were added FLIPR® calcium assay reagents (Molecular Devices Corporation, Sunnyvale, Calif., USA; 50 μL) dissolved in 1× assay buffer (HBSS: KCl 5 mM, KH2PO4 0.3 mM, NaCl 138 mM, NaHCO3 4 mM, Na2HPO4 0.3 mM, d-glucose 5.6 mM, with additional 20 mM HEPES and […], pH 7.4) and 2.5 mM probenecid. After incubation at 37° C. for 1 hour, a test compound, alone or together with naloxone (a MOR antagonist), was also added to each well. Using a FlexStationlll instrument (Molecular Devices Corp.), increments of the [Ca^2+]i fluorescence after robotic injection of the cell suspension were monitored at 1.52 s intervals using the excitation wavelength of 485 nm and the emission wavelength of 525 nm. The [Ca^2+]i fluorescence was measured up to 90 s after the injection. The fluorescence intensity from 6 to 12 wells of cells were averaged and the relative amount of [Ca^2+]i release was determined by integrating the AUC of the [Ca^2+]i fluorescence averages.
A CHO-K1 cell line expressing MOR and Gα15 (GenScript) was used to set up a sensitive high-throughput screen (HTS) system. […] The HTS was performed in the absence or presence of naloxone (an opioid antagonist; 20 nM), to identify AAMs.

[1] = combined with naloxone, CHO-K1/MOR/Gα15 cells
[2] = combined with naloxone, CHO-K1/MOR/Gα15 cells, read-out: EC50
[3] = EC50, combined with naloxone, CHO-K1/MOR/Gα15 cells

T1 sequence (P35372 whole entry): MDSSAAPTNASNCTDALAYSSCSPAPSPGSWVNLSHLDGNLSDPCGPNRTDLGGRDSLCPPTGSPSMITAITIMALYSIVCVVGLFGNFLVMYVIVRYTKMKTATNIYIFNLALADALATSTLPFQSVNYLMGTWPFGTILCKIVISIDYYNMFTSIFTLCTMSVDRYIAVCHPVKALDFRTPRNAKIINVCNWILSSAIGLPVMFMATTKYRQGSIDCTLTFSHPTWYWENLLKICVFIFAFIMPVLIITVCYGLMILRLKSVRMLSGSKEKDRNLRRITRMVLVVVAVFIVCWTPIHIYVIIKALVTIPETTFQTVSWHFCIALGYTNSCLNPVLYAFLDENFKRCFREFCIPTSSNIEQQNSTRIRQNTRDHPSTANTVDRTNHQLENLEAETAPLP

Cc1nc(C)c(-c2csc(Nc3cccc(O)c3C)n2)s1 [Compound 89, 3-[(2′,4′-Dimethyl-4,5′-bi-1,3-thiazol-2-yl)amino]-2-methylphenol] was tested, and the AUC [1] was “− (−: <5000)” and the EC50 [2] was greater than 10 µM.
In the case of Cc1nc(C)c(-c2csc(Nc3cccc(C(F)(F)F)c3C)n2)s1 [Compound 87, 2′,4′-Dimethyl-N-[2-methyl-3-(trifluoromethyl)phenyl]-4,5′-bi-1,3-thiazol-2-amine], the AUC [1] is reported as “− (−: <5000)” and the EC50 [2] is reported as greater than 10 µM.
For Cc1nc(C)c(-c2csc(Nc3ccc(Br)cc3C(F)(F)F)n2)s1 [Compound 43, N-[4-Bromo-2-(trifluoromethyl)phenyl]-2′,4′-dimethyl-4,5′-bi-1,3-thiazol-2-amine], the AUC [1] was “+ (+: >5000)” and the EC50 [2] was greater than 10 µM.
With CCc1ccccc1Nc1nc(-c2cc(-c3ccccc3)no2)cs1 [Compound 129, N-(2-Ethylphenyl)-4-(3-phenyl-1,2-oxazol-5-yl)-1,3-thiazol-2-amine] the AUC [1] was “− (−: <5000)” and the EC50 [2] was greater than 10 µM.
With Cc1ccc(Nc2nc(-c3oc(C)nc3C)cs2)c(C)c1 [Compound 105, 4-(2,4-Dimethyl-1,3-oxazol-5-yl)-N-(2,4-dimethylphenyl)-1,3-thiazol-2-amine] the AUC [1] was “+ (+: >5000)” and the EC50 [2] was greater than 10 µM.
With Cc1nc(C)c(-c2csc(Nc3cccc(F)c3C)n2)s1 [Compound 21, N-(3-Fluoro-2-methylphenyl)-2′,4′-dimethyl-4,5′-bi-1,3-thiazol-2-amine] the AUC [1] was “+ (+: >5000)” and the EC50 [2] was greater than 10 µM.
Cc1cc(C)c(Nc2nc(-c3oc(C)nc3C)cs2)c(C)c1 [Compound 106, 4-(2,4-Dimethyl-1,3-oxazol-5-yl)-N-(2,4,6-trimethylphenyl)-1,3-thiazol-2-amine] was tested, and the AUC [1] was “+ (+: >5000)”, the EC50 (EC50, combined with naloxone) was less than 10 µM and the EC50 [3] was 3 to 10 µM.
Cc1nc(C)c(-c2csc(Nc3cccc(Cl)c3C)n2)s1 [Compound 77, N-(3-Chloro-2-methylphenyl)-2′,4′-dimethyl-4,5′-bi-1,3-thiazol-2-amine] was tested, and the AUC [1] was “− (−: <5000)” and the EC50 [2] was greater than 10 µM.
CCc1ccccc1Nc1nc(-c2sc(-c3ccc(Cl)cc3)nc2C)cs1 [Compound 94, 2′-(4-Chlorophenyl)-N-(2-ethylphenyl)-4′-methyl-4,5′-bi-1,3-thiazol-2-amine] was tested, and the AUC [1] was “− (−: <5000)” and the EC50 [2] was greater than 10 µM.
For CCc1ccccc1Nc1nc(-c2ccc3c(c2)OCCCO3)cs1 [Compound 122, 4-(3,4-Dihydro-2H-1,5-benzodioxepin-7-yl)-N-(2-ethylphenyl)-1,3-thiazol-2-amine], the AUC [1] was “− (−: <5000)” and the EC50 [2] was greater than 10 µM.
CCc1ccccc1Nc1nc(-c2sc(C)nc2C)c(C)s1 [Compound 98, N-(2-Ethylphenyl)-2′,4′,5-trimethyl-4,5′-bi-1,3-thiazol-2-amine] was tested, and the AUC [1] was “− (−: <5000)” and the EC50 [2] was greater than 10 µM.
Cc1nc(C)c(-c2csc(Nc3c(C)cc(Cl)cc3C)n2)s1 [Compound 51, N-(4-Chloro-2,6-dimethylphenyl)-2′,4′-dimethyl-4,5′-bi-1,3-thiazol-2-amine] was tested, and the AUC [1] was “− (−: <5000)” and the EC50 [2] was greater than 10 µM.
Cc1nc(C)c(-c2csc(Nc3nc4ccccc4s3)n2)s1 [Compound 117, N-(1,3-Benzothiazol-2-yl)-2′,4′-dimethyl-4,5′-bi-1,3-thiazol-2-amine] was tested, and the AUC [1] was “− (−: <5000)” and the EC50 [2] was greater than 10 µM.
In the case of Cc1cc(C)cc(Nc2nc(-c3sc(C)nc3C)cs2)c1 [Compound 39, N-(3,5-Dimethylphenyl)-2′,4′-dimethyl-4,5′-bi-1,3-thiazol-2-amine], the AUC [1] is reported as “− (−: <5000)” and the EC50 [2] is reported as greater than 10 µM.
For COC(=O)Cc1cnc(Nc2nc(-c3sc(C)nc3C)cs2)s1 [Compound 111, Methyl {2-[(2′,4′-dimethyl-4,5′-bi-1,3-thiazol-2-yl)amino]-1,3-thiazol-5-yl}acetate], the AUC [1] was “− (−: <5000)” and the EC50 [2] was greater than 10 µM.
With CCc1ccccc1Nc1nc(-c2ccc(C)cc2C)cs1 [Compound 120, 4-(2,4-Dimethylphenyl)-N-(2-ethylphenyl)-1,3-thiazol-2-amine] the AUC [1] was “− (−: <5000)” and the EC50 [2] was greater than 10 µM.
In the case of Cc1ccc(C)c(Nc2nc(-c3sc(C)nc3C)cs2)c1 [Compound 25, N-(2,5-Dimethylphenyl)-2′,4′-dimethyl-4,5′-bi-1,3-thiazol-2-amine], the AUC [1] is reported as “− (−: <5000)” and the EC50 [2] is reported as greater than 10 µM.
In the case of CCc1ccccc1Nc1nc(-c2nccs2)cs1 [Compound 126, N-(2-Ethylphenyl)-2,4′-bi-1,3-thiazol-2′-amine], the AUC [1] is reported as “− (−: <5000)” and the EC50 [2] is reported as greater than 10 µM.
For COc1ccc(Nc2nc(-c3sc(C)nc3C)cs2)c(OC)c1 [Compound 14, N-(2,4-Dimethoxyphenyl)-2′,4′-dimethyl-4,5′-bi-1,3-thiazol-2-amine], the AUC [1] was “+ (+: >5000)” and the EC50 [2] was greater than 10 µM.
In the case of Cc1cc(C)c(Nc2nc(-c3sc(C)nc3C)cs2)c(C)c1 [Compound 17, 2′,4′-Dimethyl-N-(2,4,6-trimethylphenyl)-4,5′-bi-1,3-thiazol-2-amine], the AUC [1] is reported as “+ (+: >5000)”, the EC50 (EC50, combined with naloxone) is reported as less than 10 µM and the EC50 [3] is reported as 3 to 10 µM.
With Cc1nc(C)c(-c2csc(Nc3ccc(F)cc3C)n2)s1 [Compound 31, N-(4-Fluoro-2-methylphenyl)-2′,4′-dimethyl-4,5′-bi-1,3-thiazol-2-amine] the AUC [1] was “− (−: <5000)” and the EC50 [2] was greater than 10 µM.
Cc1nc(C)c(-c2csc(Nc3c(C(C)C)cccc3C(C)C)n2)s1 [Compound 23, N-(2,6-Diisopropylphenyl)-2′,4′-dimethyl-4,5′-bi-1,3-thiazol-2-amine] was tested, and the AUC [1] was “− (−: <5000)” and the EC50 [2] was greater than 10 µM.
For Cc1nc(C)c(-c2csc(Nc3ccccc3CO)n2)s1 [Compound 62, {2-[(2′,4′-Dimethyl-4,5′-bi-1,3-thiazol-2-yl)amino]phenyl}methanol], the AUC [1] was “− (−: <5000)” and the EC50 [2] was greater than 10 µM.
In the case of COc1ccc(C)c(Nc2nc(-c3sc(C)nc3C)cs2)c1 [Compound 12, N-(5-Methoxy-2-methylphenyl)-2′,4′-dimethyl-4,5′-bi-1,3-thiazol-2-amine], the AUC [1] is reported as “− (−: <5000)” and the EC50 [2] is reported as greater than 10 µM.
In the case of Cc1nc(C)c(-c2csc(Nc3ccccc3N3CCOCC3)n2)s1 [Compound 70, 2′,4′-Dimethyl-N-[2-(4-morpholinyl)phenyl]-4,5′-bi-1,3-thiazol-2-amine], the AUC [1] is reported as “− (−: <5000)”, the EC50 (EC50, combined with naloxone) is reported as less than 10 µM and the EC50 [3] is reported as 3 to 10 µM.
For Cc1nc(C)c(-c2csc(Nc3ncccc3C)n2)s1 [Compound 79, 2′,4′-Dimethyl-N-(3-methyl-2-pyridinyl)-4,5′-bi-1,3-thiazol-2-amine], the AUC [1] was “− (−: <5000)” and the EC50 [2] was greater than 10 µM.
For Cc1nc(C)c(-c2csc(Nc3ccccc3Cl)n2)s1 [Compound 8, N-(2-Chlorophenyl)-2′,4′-dimethyl-4,5′-bi-1,3-thiazol-2-amine], the AUC [1] was “− (−: <5000)” and the EC50 [2] was greater than 10 µM.
COc1cccc(Nc2nc(-c3sc(C)nc3C)cs2)c1C [Compound 85, N-(3-Methoxy-2-methylphenyl)-2′,4′-dimethyl-4,5′-bi-1,3-thiazol-2-amine] was tested, and the AUC [1] was “+ (+: >5000)”, the EC50 (EC50, combined with naloxone) was less than 10 µM and the EC50 [3] was 3 to 10 µM.
For Cc1nc(C)c(-c2csc(Nc3ccccc3Oc3ccccc3)n2)s1 [Compound 6, N-(2-Phenoxyphenyl)-2′,4′-dimethyl-4,5′-bi-1,3-thiazol-2-amine], the AUC [1] was “− (−: <5000)” and the EC50 [2] was greater than 10 µM.
In the case of CCc1ccccc1Nc1ncc(-c2oc(C)nc2C)o1 [Compound 109, 5-(2,4-Dimethyl-1,3-oxazol-5-yl)-N-(2-ethylphenyl)-1,3-oxazol-2-amine], the AUC [1] is reported as “− (−: <5000)” and the EC50 [2] is reported as greater than 10 µM.
With COc1cc(Nc2nc(-c3sc(C)nc3C)cs2)cc(OC)c1OC [Compound 37, 2′,4′-Dimethyl-N-(3,4,5-trimethoxyphenyl)-4,5′-bi-1,3-thiazol-2-amine] the AUC [1] was “− (−: <5000)” and the EC50 [2] was greater than 10 µM.
In the case of CCc1nc(C)c(-c2csc(Nc3ccccc3CC)n2)s1 [Compound 95, 2′-Ethyl-N-(2-ethylphenyl)-4′-methyl-4,5′-bi-1,3-thiazol-2-amine], the AUC [1] is reported as “+ (+: >5000)”, the EC50 (EC50, combined with naloxone) is reported as less than 10 µM and the EC50 [3] is reported as 3 to 10 µM.
With CCc1cccc(C)c1Nc1nc(-c2sc(C)nc2C)cs1 [Compound 47, N-(2-Ethyl-6-methylphenyl)-2′,4′-dimethyl-4,5′-bi-1,3-thiazol-2-amine] the AUC [1] was “+ (+: >5000)”, the EC50 (EC50, combined with naloxone) was less than 10 µM and the EC50 [3] was 1 to 3 µM.
With Cc1nc(C)c(-c2csc(Nc3ccc(N(C)C)cc3C)n2)s1 [Compound 75, N^1-(2′,4′-Dimethyl-4,5′-bi-1,3-thiazol-2-yl)-N^4,N^4,2-trimethyl-1,4-benzenediamine] the AUC [1] was “− (−: <5000)” and the EC50 [2] was greater than 10 µM.
